The text below walks through data of ChEMBL document CHEMBL3822421, “Insights into the structure-activity relationship of the anticancer compound ZJ-101, a derivative of marine natural product superstolide A: A critical role played by the conjugated trienyl lactone moiety” (Bioorg Med Chem Lett, 2016).

Bounds are passed on as bounds.

Tested on in one experiment: not listed separately
The experiment in a line: Antiproliferative activity against human SF295 cells after 48 to 72 hrs by Alamar blue assay. Format: functional, cell-based. The note with it: SF-295. (The colour change of resazurin is a common sign of viable cells or microbes.)
Regarding `CC(=O)N[C@H](C)[C@@H](O)[C@@H](C)[C@@H]1OC(=O)CC/C=C(C)\C=C\[C@]2(C)CCC=C[C@@H]2/C=C(C)/C=C/[C@H]1C`, the IC50 (as a rule, the concentration needed to halve the response being measured) is above 5000 nM.
Compound `CC(=O)N[C@H](C)[C@@H](O)[C@@H](C)[C@@H]1OC(=O)/C=C/C=C(C)\C=C\[C@]2(C)CCC=C[C@@H]2/C=C(C)/C=C/[C@H]1C` displayed an IC50 of 63.5 nM.
On the same count and under the same terms, the result for `CC(=O)N[C@H](C)[C@@H](O)[C@@H](C)[C@@H]1OC(=O)/C=C/C=C(C)/C=C/[C@]2(C)CCC=C[C@@H]2/C=C(C)/C=C/[C@H]1C` reads 611 nM.

In another experiment the test system is RKO. The experiment in a line: Antiproliferative activity against human RKO cells after 48 to 72 hrs by Alamar blue assay.
Conditions: not given
The class given is functional, cell-based.
Turning to `CC(=O)N[C@H](C)[C@@H](O)[C@@H](C)[C@@H]1OC(=O)CC/C=C(C)\C=C\[C@]2(C)CCC=C[C@@H]2/C=C(C)/C=C/[C@H]1C`, the IC50 was above 5000 nM.
On the same count and under the same terms, in the case of `CC(=O)N[C@H](C)[C@@H](O)[C@@H](C)[C@@H]1OC(=O)/C=C/C=C(C)\C=C\[C@]2(C)CCC=C[C@@H]2/C=C(C)/C=C/[C@H]1C` it was 214 nM; in that of `CC(=O)N[C@H](C)[C@@H](O)[C@@H](C)[C@@H]1OC(=O)/C=C/C=C(C)/C=C/[C@]2(C)CCC=C[C@@H]2/C=C(C)/C=C/[C@H]1C`, 1070 nM.

For another experiment, the system named is MCF7. The experiment in a line: Antiproliferative activity against human MCF7 cells after 48 to 72 hrs by Alamar blue assay. Format: functional, cell-based.
Conditions: not given
`CC(=O)N[C@H](C)[C@@H](O)[C@@H](C)[C@@H]1OC(=O)CC/C=C(C)\C=C\[C@]2(C)CCC=C[C@@H]2/C=C(C)/C=C/[C@H]1C` had an IC50 above 5000 nM.
On the same count and under the same terms, the result for `CC(=O)N[C@H](C)[C@@H](O)[C@@H](C)[C@@H]1OC(=O)/C=C/C=C(C)\C=C\[C@]2(C)CCC=C[C@@H]2/C=C(C)/C=C/[C@H]1C` reads 36.5 nM; that for `CC(=O)N[C@H](C)[C@@H](O)[C@@H](C)[C@@H]1OC(=O)/C=C/C=C(C)/C=C/[C@]2(C)CCC=C[C@@H]2/C=C(C)/C=C/[C@H]1C`, 376 nM.

For another experiment, the system named is MDA-MB-231. The experiment in a line: Antiproliferative activity against human MDA-MB-231 cells after 48 to 72 hrs by Alamar blue assay. Format: functional, cell-based.
Conditions: not given
For `CC(=O)N[C@H](C)[C@@H](O)[C@@H](C)[C@@H]1OC(=O)CC/C=C(C)\C=C\[C@]2(C)CCC=C[C@@H]2/C=C(C)/C=C/[C@H]1C`, the IC50 is above 5000 nM.
The same measure, in the same setting: the result for `CC(=O)N[C@H](C)[C@@H](O)[C@@H](C)[C@@H]1OC(=O)/C=C/C=C(C)\C=C\[C@]2(C)CCC=C[C@@H]2/C=C(C)/C=C/[C@H]1C` reads 63 nM; that for `CC(=O)N[C@H](C)[C@@H](O)[C@@H](C)[C@@H]1OC(=O)/C=C/C=C(C)/C=C/[C@]2(C)CCC=C[C@@H]2/C=C(C)/C=C/[C@H]1C`, 384 nM.
